Source: ChEMBL document CHEMBL5620382, “Fluoroindole chalcone analogues targeting the colchicine binding site of tubulin for colorectal oncotherapy” (Eur J Med Chem, 2023)
pIC50: −log10 of the molar value. The source made the active and inactive calls. The calls are words filed in the database; no cut-off is given here.

What was measured:
[1] = system: HCT-116; assay: Cytotoxicity against human HCT-116 cells assessed as growth inhibition measured after 48 hrs by CCK-8 assay; assay type: functional
[2] = system: HCT-116; assay: Antiproliferative activity against human HCT116 cells assessed as inhibition of proliferation measured after 24 hrs by CCK-8 assay; assay type: functional, cell-based; settings: HCT-116, 24 h
[3] = system: HCT-116; assay: Anti-tumor activity against human HCT-116 cells xenografted in BALB/c mouse assessed as inhibition of tumor growth at 7 mg/kg, ip thrice a week for three weeks; assay type: functional, organism-based; settings: time 3.0 weeks

Compound	GI50 [1]	also measured
COc1cc(C(=O)/C(C)=C/c2c[nH]c3cc(C(=O)O)ccc23)cc(OC)c1OC	> 10000 nM	
COc1ccc2c(/C=C(\C)C(=O)c3cc(OC)c(OC)c(OC)c3)c[nH]c2c1	74 nM	
COc1ccc(C(=O)/C(C)=C/c2c[nH]c3ccccc23)cc1OC	74 nM	
COc1cc(C(=O)/C(C)=C/c2c[nH]c3cc([N+](=O)[O-])ccc23)cc(OC)c1OC	76 nM	
COC(=O)c1ccc2c(/C=C(\C)C(=O)c3cc(OC)c(OC)c(OC)c3)c[nH]c2c1	536 nM	
COc1cc(C(=O)/C(C)=C/c2c[nH]c3c([N+](=O)[O-])cccc23)cc(OC)c1OC	91 nM	
COc1ccc(/C=C\c2cc(OC)c(OC)c(OC)c2)cc1O [COMBRETASTATIN A4]		pIC50 [2]: 7.80
COc1cc(C(=O)/C(C)=C/c2c[nH]c3ccncc23)cc(OC)c1OC	1080 nM	
COc1cc(C(=O)/C(C)=C/c2c[nH]c3ccc(F)cc23)cc(OC)c1OC	29 nM	
COc1cc(C(=O)/C(C)=C/c2cnc3ccccn23)cc(OC)c1OC	71 nM	
COc1cc(OC)cc(C(=O)/C(C)=C/c2c[nH]c3ccccc23)c1	65 nM	
COc1cc(C(=O)/C(C)=C/c2c[nH]c3ccccc23)cc2c1OCO2	61 nM	
COc1cc(C(=O)/C(C)=C/c2c[nH]c3cnccc23)cc(OC)c1OC	821 nM	
O=C(/C=C/c1c[nH]c2ccccc12)c1ccccc1	> 10000 nM	
COc1cc(C(=O)/C(C)=C/c2c[nH]c3cc(C)ccc23)cc(OC)c1OC	46 nM	
COc1cc(C(=O)/C(C)=C/c2c[nH]c3ncccc23)cc(OC)c1OC	49 nM	
COc1cc(C(=O)/C(C)=C/c2c[nH]c3ccc([N+](=O)[O-])cc23)cc(OC)c1OC	74 nM	

Compound	GI50 [1]	also measured
COc1cc(C(=O)/C(C)=C/c2c[nH]c3cccc(C)c23)cc(OC)c1OC	602 nM	
COc1cc(C(=O)/C(C)=C/c2c[nH]c3ccc(Br)cc23)cc(OC)c1OC	> 8000 nM	
CC/C(=C\c1c[nH]c2ccccc12)C(=O)c1cc(OC)c(OC)c(OC)c1	43 nM	
COc1cc(C(=O)/C(C)=C/c2c[nH]c3ccc(C)cc23)cc(OC)c1OC	71 nM	
COc1cccc2c1CC/C(=C\c1c[nH]c3ccccc13)C2=O	> 10000 nM	
COc1cc(C(=O)/C(C)=C/c2c[nH]c3cccnc23)cc(OC)c1OC	59 nM	
COc1cncc(C(=O)/C(C)=C/c2c[nH]c3ccccc23)c1	240 nM	
COc1cccc(C(=O)/C(C)=C/c2c[nH]c3ccccc23)c1	348 nM	
CC(=O)O[C@H]1C(=O)[C@@]2(C)[C@H]([C@H](OC(=O)c3ccccc3)[C@]3(O)C[C@H](OC(=O)[C@H](O)[C@@H](NC(=O)c4ccccc4)c4ccccc4)C(C)=C1C3(C)C)[C@]1(OC(C)=O)CO[C@@H]1C[C@@H]2O [PACLITAXEL]		pIC50 [2]: 7.62; Activity [3]: Active
COc1cc(C(=O)/C(C)=C/c2csc3ccccc23)cc(OC)c1OC	200 nM	
COc1cc(C(=O)/C(C)=C/c2c[nH]c3c(C)cccc23)cc(OC)c1OC	107 nM	
COc1cc(C(=O)/C(C)=C/c2c[nH]c3cc(N)ccc23)cc(OC)c1OC	69 nM	
COc1cc(C(=O)/C(C)=C/c2c[nH]c3ccc(Cl)cc23)cc(OC)c1OC	70 nM	
C/C(=C\c1c[nH]c2ccccc12)C(=O)c1ccccc1	> 15000 nM	
COc1cc(C(=O)/C(C)=C/c2c[nH]c3ccccc23)cc(OC)c1OC	0.99 nM	
COc1cc(C(=O)/C(C)=C/c2cnn3ccccc23)cc(OC)c1OC	79 nM	
